These results are taken from patent publication US20060182685A1, “Hollow fiber technique for in vivo study of cell populations” (priority 2004, published 2006).

Read-outs that look alike come from different tables or passages of the source. Marks after values point to notes of the source that are not given here.

The test system of data set [1] is hollow fiber-encapsulated M. tuberculosis H37Rv-lux.
For data set [2] the following is noted: cited from earlier work.
Data set [3] is described as follows: Serum antibiotic concentrations in mice on medicated diet. The note with it: for Cmean: serum; for AUC: SKH1, mouse, in vivo.

Turning to `CO[C@H]1/C=C/O[C@@]2(C)Oc3c(C)c(O)c4c(O)c(c(/C=N/N5CCN(C)CC5)c(O)c4c3C2=O)NC(=O)/C(C)=C\C=C\[C@H](C)[C@H](O)[C@@H](C)[C@@H](O)[C@@H](C)[C@H](OC(C)=O)[C@@H]1C` [Rifampin, rifampin], in data set [1], the “activity against bacilli in the hollow fiber model in vivo” value is recorded as “magnitude of its effect greater than that of isoniazid”. The “kill of hollow fiber-encapsulated bacilli” value in data set [1] (in vivo) worked out at 3 log. Further, in data set [2] (human, in vivo, 10 mg/kg), the exposure (AUC) was 117.93 mg·h/L and the Cmax is 14910 ng/mL. Also, in data set [3] (Rifampin, SKH1 mice (0.05% diet)), the Cmean is 3.09 ± 0.41 mg/L. The AUC in data set [3] (0.05 % of diet) was 74200 ± 9800 ng·h/mL.

For `NNC(=O)c1ccncc1` [Isoniazid, isoniazid], the “activity against bacilli in the hollow fiber model in vivo” value in data set [1] is recorded as “somewhat effective”. Also, the AUC in data set [2] (Isoniazid, Humans (5 mg/kg), rapid acetylators) is 19.9 ± 6.1^a mg h/L; in data set [2] (human, in vivo, 5 mg/kg), 48.2 ± 1.5^b mg h/L; in data set [3] (0.02 % of diet) it was 18500 ± 5000 ng·h/mL. The Cmean in data set [3] (Isoniazid, SKH1 mice (0.02% diet)) worked out at 0.77 ± 0.21 mg/L.
